Here are results for five compounds from patent US8426463B2, “[((1R,2S,5R)-2-isopropyl-5-methyl-cyclohexanecarbonyl)-amino]-acetic acid isopropyl ester and related compounds and their use in therapy” (priority 2011, dated 2013).

The test system of series [1] is dorsal surface of the tongue. The note with it: 6 subjects; filter paper on dorsal surface of tongue, 30 seconds; cited from earlier work.
In series [2] the test system is philtrum skin (keratinized stratified epithelium). The series can be described thus: Philtrum assay: duration of cooling on keratinized stratified epithelium. The format is in vivo, human. The note with it: applied to the philtrum skin at 5 mg/mL in Aquaphor ointment. The source says: Bioassay on Keratinized Stratified Epithelium: Philtrum Assay
The philtrum is the midline groove above the border of the upper lip. The site of drug testing was the skin above the upper lip (above the vermilion border of the lips), on the philtrum, lateral to the philtrum until the nasolabial folds, and sometimes on the lower nostrils (subnasale). This part of the face is known to be densely innervated with cool/cold receptors, second only to the surfaces of the eyeball and anogenitalia. It is also known from the scientific literature that the area around the lips has a high density of “cold spots” (see, e.g., Dhaka et al., “Visualizing cold spots: TRPM8-expressing sensory neurons and their projections”, J. Neuroscience, Vol. 28, pp. 566-575, 2008).
To test for anti-nociceptive activity, the test substance is first dissolved (5 mg/mL) in an ointment (Aquaphor®, which is 41% petrolatum, and the rest mineral oil, ceresin and lanolin alcohol) and singly applied (40 to 70 mg) onto the philtrum skin surface using a plastic stick.
At this locus, cool and cold sensations in the skin may be experienced and rated for time of onset and intensity. The intensity of the subjective skin sensation is rated as 0, 1, 2 or 3 with: 0 as no change; 1 as slight coolness, or cold; 2 as clear-cut signal of coolness or cold; and 3 as robust cooling or cold. The intervals for recording are 5 to 10 minutes, until two successive zeroes are obtained. The onset of drug action is taken as the time to reach 2 units of coolness intensity, and offset of drug action is the time when coolness intensity drops below 2, after previously surpassing 2 units. The duration of cooling action is defined as the offset time minus the onset time.

Series [3] has as its system ocular surface (non-keratinized stratified epithelium). The series can be described thus: Ocular surface bioassay: duration of cooling after towelette wipe on closed eyelids. The format is in vivo, human. The note with it: for Non-Keratinized Stratified Epithelia (NKSE) Ocular Surface (min), duration of cooling: applied to the closed eyelids using a towellette at 1 mg/mL in 5%-95% v/v ethanol-distilled water; for rank order of duration of action of ocular wipes: six subjects, randomized double-blind study, three trials per wipe. Here is the method: Bioassay on Non-Keratinized Stratified Epithelium: Ocular Surface
For testing on the ocular surface, a towelette containing the test compound was used as the delivery unit. The test compound was dissolved first in absolute ethanol and then distilled water was added to form a standard 1 mg/mL solution in a 3 to 5% by weight ethanol-water solution. Three mL of the test solution was then added to a 0.4 g cotton rectangle (50 mm×60 mm) (CS-being, Daisan Cotton, Japan) and individually sealed with a vacuum apparatus (Foodsaver®, Jarden Corp.). Samples were stored in a freezer or refrigerator and thawed to room temperature before use. Wiping with the cotton pad delivers 40 to 45 μL of liquid composition to the closed eyelids (˜20 to 22 μL per eye surface). Thus, if the concentration of the test compound was 1 mg/mL, the dose delivered to both eyes is a total of ˜40 to 42 μg, or ˜20 μg per eye. The presence or absence of cooling sensations felt on the ocular surface was noted as being present or absent at 5 to 10 minute intervals until no coolness was noticeable in two successive test intervals. Only the duration of cooling on the ocular surface was recorded, without an attempt to quantify the intensity of the sensation.

In series [4] the test system is oropharyngeal surface (non-keratinized stratified epithelium). Kind of series: Oropharyngeal surface bioassay: ODT followed by chili pepper sauce challenge. On the set-up: key to Non-Keratinized Stratified Epithelia (NKSE) Oropharyngeal Surface, attenuation of chili pepper sauce irritation: If there was no attenuation of the challenge stimuli, the score was (0); if there was partial inhibition, the score was (+); if there was complete attenuation of the irritant signal, the score was (++). The note with it: for Non-Keratinized Stratified Epithelia (NKSE) Oropharyngeal Surface, attenuation of chili pepper sauce irritation: ODT containing 2.5 to 3 mg of active ingredient, chili pepper sauce 45 minutes later; for effect on the response to the chili pepper sauce: same test conditions. Format: in vivo, human. The text has this:
Bioassay on Non-Keratinized Stratified Epithelium: Oropharyngeal Surface
A number of irritants have been evaluated for evoking the cough sensation as a measure of pharygeal sensitivity (see, e.g., Morice et al., 2001, “Cough Challenge in the Assessment of Cough Reflex”, Brit. J. Clin. Pharmacol., Vol. 52, pp. 365-375). Usually, citric acid or capsaicin is delivered via the inhalation route to volunteers and the number of coughs counted. […] The chili pepper sauce mixes with the saliva and the saliva is then deposited on the posterior oropharynx. The chili pepper sauce used was Yank Sing® Chili Pepper Sauce (YS Gourmet Productions, Inc., PO Box 26189, San Francisco, Calif. 94126) and is a well-known condiment for use with dim sum (Chinese tea lunch). The sensations associated with the chili pepper sauce are located in the posterior wall of the mouth and are clearly recognized by the test subject and associated with a desire to clear the throat.
The ODT was formulated by taking an ingredient, dissolving it in absolute ethanol, and then adding 10% by weight of maltitol, and 90% by weight of mannitol, and then an equal volume of distilled water. The mixture was the stirred with a glass rod, and dispensed onto a piece of wax paper with a disposable plastic pipette. The individual dried tablets weighed on average 150 mg each and when on the dorsal surface of the tongue, dissolved completely in saliva and coated the oropharyngeal surface. On average, the amount of the test substance was 2.5 to 3 mg per tablet.
To test for anti-nociceptive activity, the ODT containing the test compound was first administered onto the dorsal surface of the tongue; 45 to 50 minutes later, the chili-pepper sauce challenge is administered. At this time, the coolness sensations from the test compound have dissipated and the test is to determine if an anti-nociceptive effect remains. Results were reported as follow: If there was no attenuation of the challenge stimuli, the score was (0), if there was partial inhibition, the score was (+), and if there was complete attenuation of the irritant signal, the score was (++). In the presence of an ODT containing an active ingredient that results in a (++) score, the irritative signals were completely absent, yet the salty taste used in the soy sauce of the condiment could be readily identified and tasted.
In one formulation (used in the biological evaluation studies described herein), orally disintegrating tablets (ODTs) were prepared using an 80:20 by weight mixture of mannitol-maltitol (Pearlitol™ and Sweetpearl™, Roquette Freres, France). This carrier has the advantage of completely masking bitter tastes that might be present in some of the test compounds. The test compound was first mixed with the mannitol-maltitol using a mortar and pestle, and then suspended in an equal volume of 10:90 v/v ethanol-distilled water. A disposable pipette was then used to aliquot the liquid mixture onto a sheet of wax paper and dried at room temperature. The dried tablets were then weighed and sorted. It was found by experiment that an 80 mg tablet containing 2 to 3 mg of test compound dissolved within 15 seconds when placed on the dorsal surface of the tongue and provided a good test dose.

The test system of series [5] is TA1535 strain. The note with it: MSDS Number 2984; cited from earlier work.

As for `CC(C)[C@@H]1CC[C@@H](C)C[C@H]1O` [(−)-menthol, (1R,2S,5R)-2-isopropyl-5-methyl-cyclohexanol], the “average Threshold for cooling on the tongue” value in series [1] is 0.25 µg.

For the compound `CCOC(=O)CNC(=O)[C@@H]1C[C@H](C)CC[C@H]1C(C)C` [Gly-O-Et, [((1R,2S,5R)-2-isopropyl-5-methyl-cyclohexanecarbonyl)-amino]-acetic acid ethyl ester], the “Keratinized Stratified Epithelia Philtrum Skin (min), duration of cooling” value in series [2] is 24 min. Also, in series [3], the “Non-Keratinized Stratified Epithelia (NKSE) Ocular Surface (min), duration of cooling” value was 15 min and the “rank order of duration of action of ocular wipes” value was “Gly-O-iPr>>Gly-O-nPr>Gly-O-Et”. Further, the “increase in duration of cooling on the ocular surface” value in series [3] (concentration increased from 1 mg/mL to 2 mg/mL) came to 15 min. Besides, the “increase in duration of cooling on the ocular surface” value in series [3] (concentration increased from 1 mg/mL to 5 mg/mL) turned out to be 22 min. Besides, in series [4] (ODT), the “sensation on the oropharyngeal surface” value was “refreshing cooling sensation” and the “effect on the response to the chili pepper sauce” value is recorded as “not effective”. Further, the “Non-Keratinized Stratified Epithelia (NKSE) Oropharyngeal Surface, attenuation of chili pepper sauce irritation” value in series [4] was 0. The “mutagenicity, Ames test” value in series [5] is recorded as “weakly mutagenic”.

For `COC(=O)CNC(=O)[C@@H]1C[C@H](C)CC[C@H]1C(C)C` [Gly-O-Me, [((1R,2S,5R)-2-isopropyl-5-methyl-cyclohexanecarbonyl)-amino]-acetic acid methyl ester], in series [2], the “Keratinized Stratified Epithelia Philtrum Skin (min), duration of cooling” value came out at 10 min. In series [3], the “Non-Keratinized Stratified Epithelia (NKSE) Ocular Surface (min), duration of cooling” value is 5 min. Further, in series [4], the “Non-Keratinized Stratified Epithelia (NKSE) Oropharyngeal Surface, attenuation of chili pepper sauce irritation” value is 0.

As to `CCCCOC(=O)CNC(=O)[C@@H]1C[C@H](C)CC[C@H]1C(C)C` [Gly-O-nBu, [((1R,2S,5R)-2-isopropyl-5-methyl-cyclohexanecarbonyl)-amino]-acetic acid n-butyl ester], the “Keratinized Stratified Epithelia Philtrum Skin (min), duration of cooling” value in series [2] is on record as 38 min. Further, in series [3], the “Non-Keratinized Stratified Epithelia (NKSE) Ocular Surface (min), duration of cooling” value came out at 35 min. Also, the “Non-Keratinized Stratified Epithelia (NKSE) Oropharyngeal Surface, attenuation of chili pepper sauce irritation” value in series [4] was 0.

For the compound `CCCOC(=O)CNC(=O)[C@@H]1C[C@H](C)CC[C@H]1C(C)C` [Gly-O-nPr, [((1R,2S,5R)-2-isopropyl-5-methyl-cyclohexanecarbonyl)-amino]-acetic acid n-propyl ester], in series [2], the “Keratinized Stratified Epithelia Philtrum Skin (min), duration of cooling” value is 42 min. Moreover, in series [3], the “Non-Keratinized Stratified Epithelia (NKSE) Ocular Surface (min), duration of cooling” value is recorded as 54 min and the “rank order of duration of action of ocular wipes” value is “Gly-O-iPr>>Gly-O-nPr>Gly-O-Et”. Moreover, the “Non-Keratinized Stratified Epithelia (NKSE) Oropharyngeal Surface, attenuation of chili pepper sauce irritation” value in series [4] worked out at 0. In series [4] (ODT), the “effect on the response to the chili pepper sauce” value is “not effective”.
